Measurements: US8410117B2, “Imidazopyrimidine derivatives” (Hoffmann-La Roche Inc., priority 2010, dated 2013)

Target: T1, human PDE10A (Homo sapiens, UniProt Q9Y233)
T1 construct: The human PDE10A full length assay; purchased Enzo Life Science, Lausen, Switzerland SE-534
Experiment: human PDE10A full length Scintillation Proximity Assay (SPA)
Type: biochemical
Settings: 50 nM cGMP and 50 nM [3H]-cGMP, 20 minutes at room temperature; read-out: PDE10A inhibition IC50
Protocol: The following test was carried out in order to determine the activity of the compounds of the present invention. PDE10 activity of the compounds of the present invention was determined using a Scintillation Proximity Assay (SPA)-based method similar to the one previously described (Fawcett, L. et al., Proc Natl Acad Sci USA (2000) 97(7):3702-3707).
The human PDE10A full length assay was performed in 96-well micro titer plates. The reaction mixture of 50 μl contained 20 mM HEPES pH=7.5/10 mM MgCl2/0.05 mg/ml BSA (Sigma cat. #A-7906), 50 nM cGMP (Sigma, cat. #G6129) and 50 nM [^3H]-cGMP (GE Healthcare, cat. #TRK392 S.A. 13.2 Ci/mmol), 3.75 ng/well PDE10A enzyme (Enzo Life Science, Lausen, Switzerland cat #SE-534) with or without a specific test compound. A range of concentrations of the potential inhibitor was used to generate data for calculating the concentration of inhibitor resulting in 50% of the effect (e.g. IC50, the concentration of the competitor inhibiting PDE10A activity by 50%). Non-specific activity was tested without the enzyme. The reaction was initiated by the addition of the substrate solution (cGMP and [^3H]-cGMP) and allowed to progress for 20 minutes at room temperature. The reaction was terminated by adding 25 μl of YSi-SPA scintillation beads (GE Healthcare, cat. #RPNQ0150) in 18 mM zinc sulphate solution (stop reagent). After 1 h under shaking, the plate was centrifuged one minute at 170 g to allow beads to settle. Afterwards, radioactive counts were measured on a Perkin Elmer TopCount Scintillation plate reader.

T1 sequence (Q9Y233 1-779 isoform Q9Y233-1): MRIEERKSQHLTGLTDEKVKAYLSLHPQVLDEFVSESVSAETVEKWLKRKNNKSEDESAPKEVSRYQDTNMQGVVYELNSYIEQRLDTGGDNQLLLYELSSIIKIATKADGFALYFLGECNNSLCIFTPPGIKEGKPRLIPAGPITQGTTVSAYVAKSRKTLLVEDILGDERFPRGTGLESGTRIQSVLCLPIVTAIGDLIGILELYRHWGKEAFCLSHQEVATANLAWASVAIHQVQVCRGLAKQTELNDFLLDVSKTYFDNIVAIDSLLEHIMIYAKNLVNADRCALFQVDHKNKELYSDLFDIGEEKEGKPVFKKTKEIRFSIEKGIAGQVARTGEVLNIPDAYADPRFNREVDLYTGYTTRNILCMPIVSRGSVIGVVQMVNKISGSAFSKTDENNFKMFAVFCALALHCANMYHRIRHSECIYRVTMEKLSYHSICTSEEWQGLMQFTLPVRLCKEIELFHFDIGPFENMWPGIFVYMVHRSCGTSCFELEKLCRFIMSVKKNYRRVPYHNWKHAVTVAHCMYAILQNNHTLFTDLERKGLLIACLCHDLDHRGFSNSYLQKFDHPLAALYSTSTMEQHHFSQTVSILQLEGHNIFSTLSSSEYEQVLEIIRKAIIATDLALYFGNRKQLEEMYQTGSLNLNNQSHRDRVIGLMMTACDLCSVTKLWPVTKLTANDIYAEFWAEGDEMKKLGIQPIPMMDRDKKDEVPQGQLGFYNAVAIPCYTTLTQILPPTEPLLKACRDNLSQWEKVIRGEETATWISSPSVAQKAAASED

IC50 [nM]	Structure (SMILES)
24.4	CCNC(=O)c1cnn(C)c1C(=O)Nc1ccn2cc(-c3ccccc3)nc2n1 [Example 50, 2-Methyl-2H-pyrazole-3,4-dicarboxylic acid 4-ethylamide 3-[(2-phenyl-imidazo[1,2-a]pyrimidin-7-yl)-amide]]
24.7	Cn1ncc(C(=O)NCCC(F)(F)F)c1C(=O)Nc1ccn2cc(-c3ccccc3)nc2n1 [Example 126, 1-methyl-N5-(2-phenylimidazo[1,2-a]pyrimidin-7-yl)-N4-(3,3,3-trifluoropropyl)-1H-pyrazole-4,5-dicarboxamide]
97	Cc1nn(C)c(C(=O)Nc2ccn3cc(-c4ccccc4)nc3n2)c1Cl [Example 3, 4-Chloro-2,5-dimethyl-2H-pyrazole-3-carboxylic acid (2-phenyl-imidazo[1,2-a]pyrimidin-7-yl)-amide]
427	Cn1cc(Cl)c(CNC(=O)c2cnn(C)c2C(=O)Nc2ccn3cc(-c4ccccc4)nc3n2)n1 [Example 158, N4-((4-chloro-1-methyl-1H-pyrazol-3-yl)methyl)-1-methyl-N5-(2-phenylimidazo[1,2-a]pyrimidin-7-yl)-1H-pyrazole-4,5-dicarboxamide]
5.1	Cn1ncc(C(=O)N2CC(F)C2)c1C(=O)Nc1ccn2cc(-c3ccccc3)nc2n1 [Example 115, 4-(3-fluoroazetidine-1-carbonyl)-1-methyl-N-(2-phenylimidazo[1,2-a]pyrimidin-7-yl)-1H-pyrazole-5-carboxamide]
4.4	CCn1ncc(C(=O)N2CCC2)c1C(=O)Nc1ccn2cc(-c3ccccc3)nc2n1 [Example 69, 4-(Azetidine-1-carbonyl)-2-ethyl-2H-pyrazole-3-carboxylic acid (2-phenyl-imidazo[1,2-a]pyrimidin-7-yl)-amide]
21.1	Cn1ncc(C(=O)NC2CCC2)c1C(=O)Nc1ccn2cc(-c3ccccc3)nc2n1 [Example 59, 2-Methyl-2H-pyrazole-3,4-dicarboxylic acid 4-cyclobutylamide 3-[(2-phenyl-imidazo[1,2-a]pyrimidin-7-yl)-amide]]
3.5	Cn1ncc(C(=O)N2CCCC2)c1C(=O)Nc1ccn2cc(-c3ccccc3)nc2n1 [Example 48, 2-Methyl-4-(pyrrolidine-1-carbonyl)-2H-pyrazole-3-carboxylic acid (2-phenyl-imidazo[1,2-a]pyrimidin-7-yl)-amide]

Continued, compound first:

Structure (SMILES)	IC50 [nM]
Cn1ncc(C(=O)N2CC=CC2)c1C(=O)Nc1ccn2cc(-c3ccccc3)nc2n1 [Example 114, 4-(2,5-dihydro-1H-pyrrole-1-carbonyl)-1-methyl-N-(2-phenylimidazo[1,2-a]pyrimidin-7-yl)-1H-pyrazole-5-carboxamide]	2.8
CN(CC#N)C(=O)c1cnn(C)c1C(=O)Nc1ccn2cc(-c3ccccc3)nc2n1 [Example 119, N4-(cyanomethyl)-N4,1-dimethyl-N5-(2-phenylimidazo[1,2-a]pyrimidin-7-yl)-1H-pyrazole-4,5-dicarboxamide]	13.3
Cn1ncc(C(=O)N2CCC2)c1C(=O)Nc1ccn2cc(-c3cccc(F)c3)nc2n1 [Example 91, 4-(Azetidine-1-carbonyl)-2-methyl-2H-pyrazole-3-carboxylic acid [2-(3-fluoro-phenyl)-imidazo[1,2-a]pyrimidin-7-yl]-amide]	6.1
Cn1ncc(C(=O)NCC2CC2)c1C(=O)Nc1ccn2cc(-c3ccccc3)nc2n1 [Example 58, 2-Methyl-2H-pyrazole-3,4-dicarboxylic acid 4-cyclopropylmethyl-amide 3-[(2-phenyl-imidazo[1,2-a]pyrimidin-7-yl)-amide]]	27.3
CC(C)n1nc([N+](=O)[O-])cc1C(=O)Nc1ccn2cc(-c3ccccc3)nc2n1 [Example 16, 2-Isopropyl-5-nitro-2H-pyrazole-3-carboxylic acid (2-phenyl-imidazo[1,2-a]pyrimidin-7-yl)-amide]	82.1
Cn1ncc(C(=O)N2CC(O)C2)c1C(=O)Nc1ccn2cc(-c3ccccc3)nc2n1 [Example 36, 4-(3-Hydroxy-azetidine-1-carbonyl)-2-methyl-2H-pyrazole-3-carboxylic acid (2-phenyl-imidazo[1,2-a]pyrimidin-7-yl)-amide]	32
CN(C)C(=O)c1cnn(C)c1C(=O)Nc1ccn2cc(-c3ccccc3)nc2n1 [Example 75, 2-Methyl-2H-pyrazole-3,4-dicarboxylic acid 4-dimethylamide 3-[(2-phenyl-imidazo[1,2-a]pyrimidin-7-yl)-amide]]	4.9
COCCNC(=O)c1cnn(C)c1C(=O)Nc1ccn2cc(-c3ccccc3)nc2n1 [Example 46, 2-Methyl-2H-pyrazole-3,4-dicarboxylic acid 4-[(2-methoxy-ethyl)-amide]3-[(2-phenyl-imidazo[1,2-a]pyrimidin-7-yl)-amide]]	785
CCN(C)C(=O)c1cnn(C)c1C(=O)Nc1ccn2cc(-c3cccc(OCF)c3)nc2n1 [Example 86, N-4-Ethyl-N5-(2-(3-(fluoromethoxy)phenyl)imidazo[1,2-a]pyrimidin-7-yl)-N4,1-dimethyl-1H-pyrazole-4,5-dicarboxamide]	5.2
O=C(Nc1ccn2cc(-c3ccccc3)nc2n1)c1noc2c1CCCC2 [Example 18, 4,5,6,7-Tetrahydro-benzo[d] isoxazole-3-carboxylic acid (2-phenyl-imidazo[1,2-a]pyrimidin-7-yl)-amide]	147
Cn1ncc(C(=O)NCc2cn3ccsc3n2)c1C(=O)Nc1ccn2cc(-c3ccccc3)nc2n1 [Example 153, N4-(imidazo[2,1-b]thiazol-6-ylmethyl)-1-methyl-N5-(2-phenylimidazo[1,2-a]pyrimidin-7-yl)-1H-pyrazole-4,5-dicarboxamide]	305
CN(CCF)C(=O)c1cnn(C)c1C(=O)Nc1ccn2cc(-c3cccc(F)c3)nc2n1 [Example 104, 2-Methyl-2H-pyrazole-3,4-dicarboxylic acid 4-[(2-fluoro-ethyl)-methyl-amide]3-{[2-(3-fluoro-phenyl)-imidazo[1,2-a]pyrimidin-7-yl]-amide}]	29.6
Cn1ncc(C(=O)NCc2ccc(C#N)nc2)c1C(=O)Nc1ccn2cc(-c3ccccc3)nc2n1 [Example 142, N4-((6-cyanopyridin-3-yl)methyl)-1-methyl-N5-(2-phenylimidazo[1,2-a]pyrimidin-7-yl)-1H-pyrazole-4,5-dicarboxamide]	152
Cn1ncc(C(=O)NCc2nc(C3CC3)no2)c1C(=O)Nc1ccn2cc(-c3ccccc3)nc2n1 [Example 167, N4-((3-cyclopropyl-1,2,4-oxadiazol-5-yl)methyl)-1-methyl-N5-(2-phenylimidazo[1,2-a]pyrimidin-7-yl)-1H-pyrazole-4,5-dicarboxamide]	825
Cc1nc(CNC(=O)c2cnn(C)c2C(=O)Nc2ccn3cc(-c4ccccc4)nc3n2)cs1 [Example 163, 1-methyl-N4-((2-methylthiazol-4-yl)methyl)-N5-(2-phenylimidazo[1,2-a]pyrimidin-7-yl)-1H-pyrazole-4,5-dicarboxamide]	636
Cn1ncc(C(=O)NCc2ccc(C(F)(F)F)nc2)c1C(=O)Nc1ccn2cc(-c3ccccc3)nc2n1 [Example 144, 1-methyl-N5-(2-phenylimidazo[1,2-a]pyrimidin-7-yl)-N-4-((6-(trifluoromethyl)pyridin-3-yl)methyl)-1H-pyrazole-4,5-dicarboxamide]	198
